Here are results for 20 compounds from patent US20260070917A1, “CYCLIN DEPENDENT KINASE DEGRADERS AND METHODS OF USE THEREOF” (Differentiated Therapeutics Inc, priority 2023, published 2026).

Molecules are shown by their SMILES.

Assay type in all cases: cell-based
For one experiment, the target named is T1, CDK9 (Homo sapiens, UniProt P50750).
T1 construct: host or cells: HEK293-CDK9-Hibit
Nature of the experiment: HiBit Assay Protocol for CDK9 (HIBIT protein quantification, degradation). Particulars: HEK293-CDK9-Hibit cells, compound treatment for 6 hours; for Dmax: 6 h, read-out: CDK9 HIBIT Protein Quantification Maximum. The method in brief: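 Degradation read-out: luminescence after lytic HiBiT/LgBiT detection in HEK293-CDK9-HiBiT cells exposed 6 h to 10-point, 3-fold compound dilutions. Signal scaled between 0.1% DMSO-treated cells and medium alone; DC50 fitted from the curve.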

The target in another experiment is T2, CDK2 (Homo sapiens, UniProt P24941).
T2 construct: host or cells: HEK293-CDK2-Hibit
Put plainly: HiBit Assay Protocol for CDK2 (HIBIT protein quantification, degradation). Particulars: HEK293-CDK2-Hibit cells, compound treatment for 6 hours; for DC50: ABS DC50. Summed up:
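DC50 comes from a fitted curve of remaining CDK2-HiBiT luminescence, referenced to DMSO-treated cells and medium-only wells. HEK293-CDK2-HiBiT cells, plated the previous night, received compounds in a 10-point, 3-fold series for 6 h before lysis with LgBiT-containing Nano-Glo HiBiT reagent.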

The target of another experiment is T3, CCNE1 (Homo sapiens, UniProt P24864).
T3 construct: host or cells: HEK293-CCNE1-Hibit
Nature of the experiment: HiBit Assay Protocol for CCNE1 (HIBIT protein quantification, degradation). Particulars: HEK293-CCNE1-Hibit cells, compound treatment for 6 hours. The method in brief: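 Degradation readout: lytic Nano-Glo HiBiT luminescence after 6 h exposure of HEK293-CCNE1-HiBiT cells to 10-point, 3-fold serial dilutions. Signal was scaled between medium-only and DMSO-treated wells, and DC50 came from curve fits.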

T1 sequence (P50750 whole entry): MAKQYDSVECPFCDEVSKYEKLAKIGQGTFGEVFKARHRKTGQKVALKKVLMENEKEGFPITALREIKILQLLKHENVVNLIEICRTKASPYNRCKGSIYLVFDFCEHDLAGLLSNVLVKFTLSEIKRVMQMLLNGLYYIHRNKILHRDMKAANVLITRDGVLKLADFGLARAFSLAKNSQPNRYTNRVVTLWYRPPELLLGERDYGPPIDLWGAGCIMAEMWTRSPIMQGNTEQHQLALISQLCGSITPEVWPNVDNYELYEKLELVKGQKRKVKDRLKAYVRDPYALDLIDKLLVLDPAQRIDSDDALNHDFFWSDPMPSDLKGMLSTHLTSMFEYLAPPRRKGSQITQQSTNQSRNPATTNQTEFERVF
T3 sequence (P24864 whole entry): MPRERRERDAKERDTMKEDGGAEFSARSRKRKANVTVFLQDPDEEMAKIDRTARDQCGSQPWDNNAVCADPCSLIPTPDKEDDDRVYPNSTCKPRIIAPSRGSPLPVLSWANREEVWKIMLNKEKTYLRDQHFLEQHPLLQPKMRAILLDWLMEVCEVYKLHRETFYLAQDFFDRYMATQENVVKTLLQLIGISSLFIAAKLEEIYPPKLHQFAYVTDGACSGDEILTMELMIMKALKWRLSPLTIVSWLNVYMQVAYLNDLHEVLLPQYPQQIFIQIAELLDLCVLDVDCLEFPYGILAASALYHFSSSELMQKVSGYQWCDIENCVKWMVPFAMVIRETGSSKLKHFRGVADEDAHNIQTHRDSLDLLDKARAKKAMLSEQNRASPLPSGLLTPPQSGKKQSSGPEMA

`CC1CCCC1N1C(=O)C2(CC2)c2cnc(NC3CCN(S(=O)(=O)N4CC5(CCN(C(=O)CCCCCCCc6ccc7c(c6)n(C)c(=O)n7C6CCC(=O)NC6=O)CC5)C4)CC3)nc21` (stereo not drawn) [Compound 83]: the Dmax on CDK9 amounted to 16%. Moreover, the “CDK2 HIBIT Protein Quantification Maximum” value at CDK2 turned out to be 29%. Besides, on CCNE1, the “CCNE1 HIBIT Protein Quantification Maximum” value was 13%.

Regarding `CC1CCCC1N1C(=O)C2(CC2)c2cnc(NC3CCN(S(=O)(=O)C4CCN(C(=O)CCCCCCCc5ccc6c(c5)n(C)c(=O)n6C5CCC(=O)NC5=O)C4)CC3)nc21` (stereo not drawn) [Compound 84], on CDK9, the Dmax amounted to 30%. In addition, at CDK2, the “CDK2 HIBIT Protein Quantification Maximum” value is reported as 53% and the DC50 was determined as 21 nM. The “CCNE1 HIBIT Protein Quantification Maximum” value on CCNE1 is recorded as 47%.

For the compound `CC1CCCC1N1C(=O)C2(CC2)c2cnc(NC3CCN(S(=O)(=O)C4CCCN(C(=O)CCCCCCCc5ccc6c(c5)n(C)c(=O)n6C5CCC(=O)NC5=O)C4)CC3)nc21` (stereo not drawn) [Compound 85], the Dmax at CDK9 came to 14%. The “CDK2 HIBIT Protein Quantification Maximum” value on CDK2 came to 17%. Also, the “CCNE1 HIBIT Protein Quantification Maximum” value on CCNE1 came out at 41%.

Regarding `CC1CCCC1N1C(=O)C2(CC2)c2cnc(NC3CCN(S(=O)(=O)N4CC(N(C)C(=O)CCCCCCCCCc5ccc6c(c5)n(C)c(=O)n6C5CCC(=O)NC5=O)C4)CC3)nc21` (stereo not drawn) [Compound 86], the Dmax on CDK9 was determined as 34%. Moreover, at CDK2, the “CDK2 HIBIT Protein Quantification Maximum” value is listed as 65% and the DC50 worked out at 16 nM. At CCNE1, the “CCNE1 HIBIT Protein Quantification Maximum” value is given as 37%.

In the case of `CC1CCCC1N1C(=O)C2(CC2)c2cnc(NC3CCN(S(=O)(=O)N4CC5(CCCN(C(=O)CCCCCCCCCc6ccc7c(c6)n(C)c(=O)n7C6CCC(=O)NC6=O)C5)C4)CC3)nc21` (stereo not drawn) [Compound 87], the Dmax at CDK9 came to 13%. In addition, the “CDK2 HIBIT Protein Quantification Maximum” value at CDK2 is recorded as 44%. Further, on CCNE1, the “CCNE1 HIBIT Protein Quantification Maximum” value was 11%.

Regarding `CC1CCCC1N1C(=O)C2(CC2)c2cnc(NC3CCN(S(=O)(=O)N4CC5(CCN(C(=O)CCCCCCCCCc6ccc7c(c6)n(C)c(=O)n7C6CCC(=O)NC6=O)CC5)C4)CC3)nc21` (stereo not drawn) [Compound 88], the Dmax at CDK9 stood at 24%. For the same compound, on CDK2, the “CDK2 HIBIT Protein Quantification Maximum” value amounted to 55% and it took 7 nM to reach half-maximal degradation (DC50). At CCNE1, the “CCNE1 HIBIT Protein Quantification Maximum” value is 21%.

With `CC1CCCC1N1C(=O)C2(CC2)c2cnc(NC3CCN(S(=O)(=O)N4CCC5(CCN(C(=O)CCCCCCCCCc6ccc7c(c6)n(C)c(=O)n7C6CCC(=O)NC6=O)C5)C4)CC3)nc21` (stereo not drawn) [Compound 89], on CDK9, the Dmax worked out at 35%. Also, the “CDK2 HIBIT Protein Quantification Maximum” value on CDK2 is 50%. The “CCNE1 HIBIT Protein Quantification Maximum” value on CCNE1 came out at 25%.

Regarding `CC1CCCC1N1C(=O)C2(CC2)c2cnc(NC3CCN(S(=O)(=O)C4CCN(C(=O)CCCCCCCCCc5ccc6c(c5)n(C)c(=O)n6C5CCC(=O)NC5=O)C4)CC3)nc21` (stereo not drawn) [Compound 90], on CDK9, the Dmax was 45%. On CDK2, the “CDK2 HIBIT Protein Quantification Maximum” value is 67% and the DC50 was 5 nM. The “CCNE1 HIBIT Protein Quantification Maximum” value at CCNE1 was found to be 34%.

As to `CC1CCCC1N1C(=O)C2(CC2)c2cnc(NC3CCN(S(=O)(=O)N4CC(N(C)C(=O)CCCCc5cccc6c5n(C)c(=O)n6C5CCC(=O)NC5=O)C4)CC3)nc21` (stereo not drawn) [Compound 91], on CDK9, the Dmax stood at 37%. Moreover, at CDK2, the “CDK2 HIBIT Protein Quantification Maximum” value was 64% and it took 6 nM to reach half-maximal degradation (DC50). On CCNE1, the “CCNE1 HIBIT Protein Quantification Maximum” value is reported as 25%.

`CC1CCCC1N1C(=O)C2(CC2)c2cnc(NC3CCN(S(=O)(=O)N4CC5CN(C(=O)CCCCc6cccc7c6n(C)c(=O)n7C6CCC(=O)NC6=O)CC5C4)CC3)nc21` (stereo not drawn) [Compound 92]: the Dmax at CDK9 is 26%. On CDK2, the “CDK2 HIBIT Protein Quantification Maximum” value is on record as 39%. Further, the “CCNE1 HIBIT Protein Quantification Maximum” value at CCNE1 is on record as 7%.

Consider `CC1CCCC1N1C(=O)C2(CC2)c2cnc(NC3CCN(S(=O)(=O)N4CCC5(CCCN5C(=O)CCCCc5cccc6c5n(C)c(=O)n6C5CCC(=O)NC5=O)C4)CC3)nc21` (stereo not drawn) [Compound 94], for which the Dmax on CDK9 stood at 51%. In addition, the DC50 amounted to 2 nM on CDK9 (ABS DC50) and 16 nM on CDK2. Further, the “CDK2 HIBIT Protein Quantification Maximum” value on CDK2 was 63%. At CCNE1, the “CCNE1 HIBIT Protein Quantification Maximum” value came to 39%.

Regarding `CC1CCCC1N1C(=O)C2(CC2)c2cnc(NC3CCN(S(=O)(=O)N4CC5(CCCCN5C(=O)CCCCc5cccc6c5n(C)c(=O)n6C5CCC(=O)NC5=O)C4)CC3)nc21` (stereo not drawn) [Compound 95], the Dmax on CDK9 was found to be 7%. In addition, at CDK2, the “CDK2 HIBIT Protein Quantification Maximum” value is reported as 65% and the DC50 was 11 nM. In addition, the “CCNE1 HIBIT Protein Quantification Maximum” value at CCNE1 was found to be 15%.

In the case of `CC1CCCC1N1C(=O)C2(CC2)c2cnc(NC3CCN(S(=O)(=O)N4CC5(CCCN(C(=O)CCCCc6cccc7c6n(C)c(=O)n7C6CCC(=O)NC6=O)C5)C4)CC3)nc21` (stereo not drawn) [Compound 96], at CDK9, the Dmax amounted to 26%. Besides, the “CDK2 HIBIT Protein Quantification Maximum” value on CDK2 is listed as 46%. The “CCNE1 HIBIT Protein Quantification Maximum” value at CCNE1 turned out to be 46%.

Turning to `CC1CCCC1N1C(=O)C2(CC2)c2cnc(NC3CCN(S(=O)(=O)N4CC5(CN(C(=O)CCCCc6cccc7c6n(C)c(=O)n7C6CCC(=O)NC6=O)C5)C4)CC3)nc21` (stereo not drawn) [Compound 97], the Dmax on CDK9 is 46%. In addition, the “CDK2 HIBIT Protein Quantification Maximum” value on CDK2 turned out to be 41%. Also, the “CCNE1 HIBIT Protein Quantification Maximum” value at CCNE1 came out at 14%.

Regarding `CC1CCCC1N1C(=O)C2(CC2)c2cnc(NC3CCN(S(=O)(=O)N4CC5CN(C(=O)CCCCc6cccc7c6n(C)c(=O)n7C6CCC(=O)NC6=O)CC54)CC3)nc21` (stereo not drawn) [Compound 99], the Dmax at CDK9 is 11%. The “CDK2 HIBIT Protein Quantification Maximum” value on CDK2 is reported as 31%. Also, the “CCNE1 HIBIT Protein Quantification Maximum” value at CCNE1 is given as 1%.

For the compound `CC1CCCC1N1C(=O)C2(CC2)c2cnc(NC3CCN(S(=O)(=O)N4CCCN(C(=O)CCCCc5cccc6c5n(C)c(=O)n6C5CCC(=O)NC5=O)CC4)CC3)nc21` (stereo not drawn) [Compound 100], the Dmax at CDK9 was 34%. In addition, on CDK2, the “CDK2 HIBIT Protein Quantification Maximum” value is listed as 62% and the half-maximal degradation concentration (DC50) is 6 nM. In addition, the “CCNE1 HIBIT Protein Quantification Maximum” value on CCNE1 was determined as 31%.

Regarding `CC1CCCC1N1C(=O)C2(CC2)c2cnc(NC3CCN(S(=O)(=O)C4CCCN(C(=O)CCCCc5cccc6c5n(C)c(=O)n6C5CCC(=O)NC5=O)C4)CC3)nc21` (stereo not drawn) [Compound 101], the Dmax on CDK9 stood at 23%. Besides, on CDK2, the “CDK2 HIBIT Protein Quantification Maximum” value is reported as 38%. For the same compound, the “CCNE1 HIBIT Protein Quantification Maximum” value on CCNE1 was 47%.

In the case of `CC1CCCC1N1C(=O)C2(CC2)c2cnc(NC3CCN(S(=O)(=O)N4CC5CN(C(=O)CCCCc6ccc7c(c6)n(C)c(=O)n7C6CCC(=O)NC6=O)CC5C4)CC3)nc21` (stereo not drawn) [Compound 103], the Dmax on CDK9 was found to be 0%. Moreover, the “CDK2 HIBIT Protein Quantification Maximum” value on CDK2 was determined as 31%. The “CCNE1 HIBIT Protein Quantification Maximum” value at CCNE1 came to 7%.

For `CC1CCCC1N1C(=O)C2(CC2)c2cnc(NC3CCN(S(=O)(=O)N4CCCC45CCN(C(=O)CCCCc4ccc6c(c4)n(C)c(=O)n6C4CCC(=O)NC4=O)C5)CC3)nc21` (stereo not drawn) [Compound 104], at CDK9, the Dmax came to 11%. The “CDK2 HIBIT Protein Quantification Maximum” value on CDK2 was 25%. For the same compound, the “CCNE1 HIBIT Protein Quantification Maximum” value at CCNE1 worked out at 6%.

In the case of `CC1CCCC1N1C(=O)C2(CC2)c2cnc(NC3CCN(S(=O)(=O)N4CCC5(CCCN5C(=O)CCCCc5ccc6c(c5)n(C)c(=O)n6C5CCC(=O)NC5=O)C4)CC3)nc21` (stereo not drawn) [Compound 105], the Dmax at CDK9 is 36%. At CDK2, the “CDK2 HIBIT Protein Quantification Maximum” value turned out to be 40%. Moreover, on CCNE1, the “CCNE1 HIBIT Protein Quantification Maximum” value was determined as 15%.
